Entries after “also recorded” stand apart in the source; their conditions may differ. Read-outs that look alike come from different tables or passages of the source.
Experiments:
HPV16 pseudovirus [1] = assay: Luciferase assay: HPV16 pseudovirus with renilla luciferase reporter (HPV16wpA-RL); settings: renilla luciferase reporter behind HPV16 promoter
Method: (§1) The protocol for the secondary screen was identical to that of the primary screen with the exception that all volumes were scaled up by a factor of four. RL activity was measured using the Renilla Luciferase Assay System (Promega).

in vitro [2] = settings: human
HPV16 virus = assay: Wild type HPV16 infection in 293T cells, early viral gene expression by real time PCR; format: cell-based; settings: 5 to 10 μM (FIG. 3: 10 μM), 48 hours post infection
Method: FIG. 3. Inhibition of infection by HPV 16 virus. Shown is the relative efficiency of infection by HPV16 virus in 293T cells as scored by quantifying early viral transcription using real time PCR for E2 (dark grey bars), E5 (white bars) and E7 (light grey bars) containing mRNAs at 48 hours post-infection in the absence (DMSO—vehicle only, values set at 100%) or the presence of the indicated compound (10 μM concentration). Data points shown are the average of triplicate sample values. The dotted line indicates the normalized value for no drug (set as 100% infection value).
The 21 selected compounds were also tested for their ability to inhibit infection by bonafide HPV16 in 293T cells by measuring early viral gene expression by real time PCR at 48 hours post infection (FIG. 3) after treatment of the cell with 5 to 10 μM of each compound. Consistently with the data of reporter gene assays, HPV early gene expression was inhibited by Compounds 4, 13, 14, 18 and 20. Given the large differences in IC50 and CD50, and the reproducible capacity to inhibit infection by HPV16 pseudovirus and HPV16 virus in different cell types, Compounds 13 and 14 were selected for further analysis.
After 2 day infection, total RNA was isolated from infected cell lysate and treated with DNase I (Promega) as previously. (Pyeon, D. et al., Establishment of human papillomavirus infection requires cell cycle progression, PLos Pathog. 2009 February; 5(2):e1000318. Epub 2009 Feb. 27). Complementary DNA (cDNA) was synthesized from the normalized total RNA with the SuperScript cDNA synthesis kit (Invitrogen). All oligonucleotide primers (0.5 μM) for PCR are previously published (Pyeon D. et al., Production of infectious human papillomavirus independently of viral replication and epithelial cell differentiation, Proc. Nat'l Acad. Sci. USA, 2005 Jun. 28; 102(26):9311-6, Epub 2005 Jun. 15) or listed in Table 2.
Conventional PCR was performed with Taq DNA polymerase (Promega) and the following cycle: denaturation at 94° C. for 5 min, 42 cycles of 94° C. for 30 sec., 55° C. for 1 min., and 72° C. for 1 min., followed by extension at 72° C. for 7 min. Final products were analyzed by 1% agarose gel electrophoresis and ethidium bromide staining. Quantitative RT-PCR was performed using QuantiTect SYBR green PCR kit (Qiagen) with the following cycle: denaturation at 95° C. for 5 min. and 40 cycles of 95° C. for 30 sec., 55° C. for 30 sec., and 72° C. for 30 sec.

HPV16 pseudoviruses = assay: microbe, parasite or virus in culture; format: cell-based; settings: Human papillomavirus 16, HEK-293T, 48 h
Summary of the method: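 Viability was read by CellTiter Glo luminescence on the same wells used for the SEAP infection read-out, after 48 hrs further incubation.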

HPV16 pseudovirus [3] = assay: microbe, parasite or virus in culture; format: cell-based; settings: HaCaT, HPV16 pseudovirus
Source text: FIG. 2. Dose dependence inhibition of HPV16 pseudovirus infection in a human keratinocyte cell line (HaCaT). Graphed are the dose-dependent effects of lead compounds shown in Table 2 on the efficiency of infection by HPV16 pseudovirus scored by measuring luciferase reporter activity (squares) as well as their effects on cell viability (circles).
All but one of these compounds (6 is […]) were repurchased and subjected to a tertiary screen performed in the human keratinocyte cell line, HaCaT, and using HPV16 pseudoviruses encoding a third reporter gene, firefly luciferase, transcribed from a different, E1a, promoter.
The infectivity assay was repeated at least twice and each assay was performed in replicate (n≥3).
At 4 hours prior to exposure of cell to pseudoviruses, compounds were added to plates in 1% DMSO final concentration at the indicated amounts. Four hours later, 10 multiplicity of infection (M.O.I.) units of HPV16 pseudovirus carrying the plasmid LucF was added to the cells. 72 hours later, cells were lysed and luciferase assays performed using the Luciferase Assay System (Promega Cat. #E1501). For infection studies with HPV11 and HPV31 pseudoviruses, 200 virus genome equivalents (vge) of virus per cell were used. Cell viability was assessed in parallel plates by Luminescent Cell Viability Assay (Promega Cat. #G7571).

in vitro [4] = settings: human; remark: listed apart in the source
in vitro [5] = settings: human; remark: listed apart in the source
Method: as §1

[6] = Primary HTS Viability % Average
[7] = read-out: Infectivity (SEAP Activity), 3 μM HTS standard concentration, 293T cells, 48 hrs
[8] = read-out: Infectivity vs. viability, 3 μM HTS standard concentration, ratio infectivity/viability
[9] = read-out: Primary HTS SEAP vs Viability, Table 2, first pair of columns (c2)
[10] = read-out: Primary HTS SEAP vs Viability, Table 2, second pair of columns (c4)

| Compound | Luciferase assay RL % Average (HPV16 pseudovirus [1]) [%] | viability at 52 h, 3 μM (in vitro [2]; [6]) [%] | viability at 52 h, 3 μM (in vitro [2]; Viability (CelTiter Glow)) [%] | Inhibition of HPV16 early gene expression (E2, E5, E7 mRNAs) (HPV16 virus) | activity at 3 µM (HPV16 pseudoviruses; [7]) [%] | activity at 3 µM (HPV16 pseudoviruses; [8]) [%] | activity at 3 µM (HPV16 pseudoviruses; [9]) [%] | activity at 3 µM (HPV16 pseudoviruses; [10]) [%] | Effect on infection and cytotoxicity, assayed independently (HPV16 pseudovirus [3]) | viability at 52 h, 3.3 μM (in vitro [4]) [%] | viability at 52 h, 3.3 μM (in vitro [5]) [%] |
| --- | --- | --- | --- | --- | --- | --- | --- | --- | --- | --- | --- |
| NNC(=O)c1cc(COc2cc(Cl)cc(Cl)c2)on1 [Compound 4, 5-[(3,5-dichlorophenoxy)methyl]-1,2-oxazole-3-carbohydrazide] | 68.26 | 94.5 | 90.4 | reproducible and significant inhibition; also recorded: inhibited | 22.6 | 25 | 18.3 | 26.9 | inhibit infection but also to cause cytotoxicity at similar doses | – | – |
| O=C(N(c1cccc(C(F)(F)F)c1)C1C=CS(=O)(=O)C1)C(F)(F)F (stereo not drawn) [Compound 8, N-(1,1-dioxido-2,3-dihydro-3-thienyl)-2,2,2-trifluoro-N-[3-(trifluoromethyl)phenyl]acetamide] | 177.47 | 96.4 | 94.4 | – | 27.7 | 29.4 | 37.3 | 18.1 | – | – | – |
| COc1ccc(C(O)(CNCc2ccccc2)c2ccc(Br)cc2)cc1 (stereo not drawn) [Compound 9, 2-(benzylamino)-1-(4-bromophenyl)-1-(4-methoxyphenyl)ethanol] | 71.67 | 101 | 105 | – | 29.9 | 28.4 | 16.5 | 43.4 | – | 102 | 99 |
| CN1C(=O)C(c2c[nH]c3ccccc23)(c2c[nH]c3ccccc23)c2ccccc21 [Compound 10, 1′-methyl-1H,1″H-3,3′:3′,3″-terindol-2′(1′H)-one] | 30.72 | – | 105 | – | 38.8 | 37 | 34.4 | 43.2 | – | – | – |
| COC(=O)C1=C(C)NC2=C(C(=O)c3ccccc32)C1c1cc2c(cc1Br)OCO2 (stereo not drawn) [Compound 11, methyl 4-(6-bromo-1,3-benzodioxol-5-yl)-2-methyl-5-oxo-4,5-dihydro-1H-indeno[1,2-b]pyridine-3-carboxylate] | 95.56 | – | 130 | – | 19.1 | 14.7 | 17.7 | 20.4 | – | 97.3 | 95.7 |
| O=C1NC(=S)SC1=Cc1ccc(Oc2ccc([N+](=O)[O-])cn2)cc1 [Compound 12, 5-{4-[(5-nitro-2-pyridinyl)oxy]benzylidene)-2-thioxo-1,3-thiazolidin-4-one] | 105.80 | – | 132 | – | 28.3 | 21.5 | 39.4 | 17.2 | – | – | – |
| CCOc1ccc(C(=O)Nc2ccc3oc(-c4ccccc4Br)nc3c2)cc1 [Compound 15, N-[2-(2-bromophenyl)-1,3-benzoxazol-5-yl]-4-ethoxybenzamide] | 102.39 | 89.5 | 93.8 | – | 26.4 | 28.1 | 11.1 | 41.6 | – | 95.7 | 97.7 |
| O=S1(=O)C=CC(Nc2cccc(C(F)(F)F)c2)C1 (stereo not drawn) [Compound 16, (1,1-dioxido-2,3-dihydro-3-thienyl)[3-(trifluoromethyl)phenyl]amine] | 146.76 | 98.2 | 92.9 | – | 28.4 | 30.6 | 36.1 | 20.6 | – | – | – |
| COc1cccc(NC(=O)c2ccc(C)c([N+](=O)[O-])c2)c1 [Compound 17, N-(3-methoxyphenyl)-4-methyl-3-nitrobenzamide] | 92.15 | – | 86.8 | – | 43 | 49.6 | 32.9 | 53.2 | – | – | – |
| O=C1NC(=S)SC1=Cc1cc(Br)ccc1OCc1ccccc1Cl [Compound 18, 5-{5-bromo-2-[(2-chlorobenzyl)oxy]benzylidene}-2-thioxo-1,3-thiazolidin-4-one] | 112.63 | 87.8 | 95.4 | reproducible and significant inhibition; also recorded: inhibited | 24.2 | 25.4 | 27.2 | 21.2 | – | – | – |
| CC(O)c1cccc(NC(=O)c2cc3n(n2)C(C(F)(F)F)CC(c2ccc(F)cc2)N3)c1 (stereo not drawn) [Compound 19, 5-(4-fluorophenyl)-N-[3-(1-hydroxyethyl)phenyl]-7-(trifluoromethyl)-4,5,6,7-tetrahydropyrazolo[1,5-a]pyrimidine-2-carboxamide] | 88.74 | 116 | 107 | – | 40.8 | 37.9 | 50 | 31.5 | – | – | – |
| FC(F)(F)c1cnc2c(c1)nc(S)n2-c1ccc(Cl)cc1 [Compound 20, 3-(4-chlorophenyl)-6-(trifluoromethyl)-3H-imidazo[4,5-b]pyridine-2-thiol] | 109.22 | 95.8 | 99.1 | reproducible and significant inhibition; also recorded: inhibited | 21.4 | 21.6 | 20.9 | 21.9 | – | – | – |
| Cc1cccc(NC(=O)Nc2ccc(C(C)(C)C)cc2)n1 [Compound 21, 1-(4-tert-butylphenyl)-3-(6-methylpyridin-2-yl)urea] | 109.22 | 92.8 | 92.8 | – | 43.8 | 47.2 | 34.2 | 53.5 | – | – | – |
| Cc1ccc(C2Nc3ccccc3NC3=C2C(=O)CC(c2ccccc2)C3)s1 (stereo not drawn) [Compound 22, 11-(5-methyl-2-thienyl)-3-phenyl-2,3,4,5,10,11-hexahydro-1H-dibenzo[b,e][1,4]diazepin-1-one] | 44.37 | – | 105 | – | 44.1 | 41.9 | 45.2 | 43 | – | 93.7 | 97.3 |

Reference: patent US9949980B2, “Drugs to prevent HPV infection” (Wisconsin Alumni Research Foundation, priority 2008, dated 2018)
